Results reported in patent US11673889B2, “Substituted imidazo[4,5-c][1,8]naphthyridines as phosphodiesterase inhibitors” (Nanjing Zhengxiang Pharmaceuticals Co., Ltd., priority 2019, dated 2023).

Key:
[1] = biological target: T1, ENPP-1, MDA-MB-231 cells (Homo sapiens, UniProt P22413); experiment: cell-based; settings: for inhibition at 20 µM: MDA-MB-231, read-out: % Inhibition (at 20 μM)
T1 sequence (P22413 1-925): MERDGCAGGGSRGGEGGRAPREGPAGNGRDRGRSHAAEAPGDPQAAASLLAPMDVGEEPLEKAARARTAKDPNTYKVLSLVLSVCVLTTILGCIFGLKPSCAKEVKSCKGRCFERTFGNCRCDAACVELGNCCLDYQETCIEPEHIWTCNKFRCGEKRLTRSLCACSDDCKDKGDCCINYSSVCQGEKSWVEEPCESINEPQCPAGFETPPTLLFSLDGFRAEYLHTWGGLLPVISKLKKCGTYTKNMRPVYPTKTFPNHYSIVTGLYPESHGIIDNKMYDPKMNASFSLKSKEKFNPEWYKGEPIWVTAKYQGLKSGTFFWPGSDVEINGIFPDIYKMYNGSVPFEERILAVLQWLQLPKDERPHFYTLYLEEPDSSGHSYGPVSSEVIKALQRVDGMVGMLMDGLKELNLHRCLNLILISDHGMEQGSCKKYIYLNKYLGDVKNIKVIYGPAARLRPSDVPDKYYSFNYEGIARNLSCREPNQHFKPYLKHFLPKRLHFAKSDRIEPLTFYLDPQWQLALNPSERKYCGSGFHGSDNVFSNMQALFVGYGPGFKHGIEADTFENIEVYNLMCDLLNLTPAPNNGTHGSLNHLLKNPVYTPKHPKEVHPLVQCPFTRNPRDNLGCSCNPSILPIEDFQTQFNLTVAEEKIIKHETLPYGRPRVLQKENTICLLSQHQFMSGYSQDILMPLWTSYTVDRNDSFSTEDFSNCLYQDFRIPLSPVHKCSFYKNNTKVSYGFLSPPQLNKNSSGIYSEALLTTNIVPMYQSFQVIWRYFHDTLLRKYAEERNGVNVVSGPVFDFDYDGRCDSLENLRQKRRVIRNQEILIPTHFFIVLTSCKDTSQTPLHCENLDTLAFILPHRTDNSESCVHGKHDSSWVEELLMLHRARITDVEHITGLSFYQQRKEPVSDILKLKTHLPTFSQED

[2] = system: cGAMP activated THP-1 cells; experiment: ENPP1 inhibitors screening on cGAMP activated THP-1 cells (IFN-β ELISA); type: cell-based; settings: THP-1 cells with 2′3′-cGAMP, 24 hours, FIGS. 1A-1E
Experimental: THP-1 cells from bulk cultures were counted and suspended in RPMI 1640, 20% FBS, 2.5 mM L-alanyl-L-glutamine at a concentration of 5.5×10^6 cells/mL. The THP-1 cells were subsequently seeded into 96 well round bottom plates 180 μL/well (1×10^6 cells per well), incubated for 1 hour at 37° C., 5% CO2.
Test compounds were screened in triplicate on THP-1 cells at a final concentration of 10 μM. A working solutions at 0.2 mM. Each well contains 180 μL of THP-1 cell suspension, 10 μL (30 μM, 40 μM or 50 μM) 2′3′-cGAMP (InvivoGen, catalog #tlrl-nacga23) solution (600 μM, 800 μM or 1000 μM) and 10 μL test compound working solution. Incubate for 1 hour.
Vehicle control wells contain 2′3′-cGAMP at concentrations of […] and 50 μM without any test compound. Positive control, 2′3′-cGAMP or 2′,3′-cGAM(PS)2 (Rp/Sp) (InvivoGen, cat #tlrl-nacga2srs) at 40 μM and 80 μM (final concentration).
The final assay volume were 200 μL/well contains: 1) THP-1 cells=180 μL, 2) test compounds=10 μL, 3) 2′3′-cGAMP or 2′3′-cGAM(PS)2 (Rp/Sp) or vehicle control=10 μL.
After incubation for 24 hours at 37° C., 5% CO2, the supernatants were harvested at 200×g for 10 minutes. Cell culture supernatants were then transferred to a clean plate and stored at −80° C. until ready to analyze for IFN-β levels. The IFN-β levels in cell culture supernatants were determined by ELISA kits (PBL Assay Science, catalog #41410) according to the manufacturer's instructions.
The % increase measured for IFN-β in cells treated by the test compounds 12, 48, 89, 103 and 121 relative to that of untreated cells were tested (as shown in FIGS. 1A-1E).

[3] = biological target: T2, ENPP-1, HEK293 cells (Homo sapiens, UniProt P22413); experiment: Cellular enzymatic assay of ENPP-1 inhibitors using TMP-pNP as substrate, HEK 293 cells; type: cell-based; settings: for inhibition at 20 µM: HEK293, HEK 293 cells, read-out: Inhibition (at 20 μM)
T2 construct: ENPP-1 were mainly expressed on the surface of cell membrane; endogenous in cells; host or cells: HEK293
T2 sequence (P22413 1-925): T1 sequence (P22413 1-925)
Experimental: (§1) ENPP-1 were mainly expressed on the surface of cell membrane where it hydrolytes 2′3′-cGAMP to generate 5′-GMP and 5′-AMP. ENPP-1 also has the ability to hydrolyzes artificial phosphoric acid ester TMP-pNP to nucleotide-5′-monophosphate and p-nitrophcnol there, which is a chromogenic product.
(§2) 8 point of different concentrations of each inhibitor were prepared with the final assay concentrations starting at 20 μM. 3× series dilution by DMEM medium without FBS was applied. Prior to adding inhibitors, 75000 cells per well were incubated at 37° C., 5% CO2 in DMEM for 24 hours. After removing the supernatant medium, 50 μL inhibitor solution was added into each well with cultured cells and incubate at 37° C., 5% CO2 for 60 minutes.
(§3) The IC50 values for percent inhibition versus compound concentration are determined by fitting the inhibition curves using a four-parameter variable slope model in GraphPad Prism® 8.

[4] = biological target: T3, ENPP-1, Saos-2 cells (Homo sapiens, UniProt P22413); experiment: Cellular enzymatic assay of ENPP-1 inhibitors using TMP-pNP as substrate, Saos-2 cells; type: cell-based
T3 construct: ENPP-1 were mainly expressed on the surface of cell membrane; endogenous in cells; host or cells: Saos-2
T3 sequence (P22413 1-925): T1 sequence (P22413 1-925)
Experimental: as §1, §2, §3

[5] = Liver microsome stability, mouse; type: in vitro ADME
Experimental: (§4) Liver microsome assay was used to evaluate the metabolic stability of I-VI. The test article at the concentration of […] was incubated with 0.5 mg/mL liver microsome in the presence of NADPH and UDPGA as the co-factors for 0, 15, 30, 45 and 60 minutes. The incubation was carried out at 37° C. with 5% CO2 and saturating humidity. Disappearance of the test article was monitored by LC/MS/MS. the disappearance half-life (t1/2), intrinsic clearance and hepatic extraction ratio were determined.

[6] = Liver microsome stability, human; type: in vitro ADME
Experimental: as §4

Compound | IC50 [1] | inhibition at 20 µM [1] | % increase measured for IFN-β relative to that of untreated cells [2] | IC50 [3] | inhibition at 20 µM [3] | IC50 [4] | inhibition at 20 µM ([4]; Saos-2 cells, @20 μM, read-out: % Inhibition (@20 μM)) | Hepatic extraction ratio Re ([5]; Mouse liver microsome) | half-life ([5]; liver microsomes, Mouse liver microsome 0.5 mg/mL, NADPH and UDPGA, 37° C., read-out: Half-life t1/2) | microsomal CLint ([5]; liver microsomes, Mouse liver microsome, read-out: Intrinsic clearance Cl′int, (μL/min/mg protein)) | Hepatic extraction ratio Re ([6]; Human liver microsome) | half-life ([6]; liver microsomes, Human liver microsome 0.5 mg/mL, NADPH and UDPGA, 37° C., read-out: Half-life t1/2) | microsomal CLint ([6]; liver microsomes, Human liver microsome, read-out: Intrinsic clearance Cl′int, (μL/min/mg protein))
COc1ccc2c(n1)nc(C)c1nc(C)n(Cc3ccc(S(N)(=O)=O)cn3)c12 [Compound 89, 6-((7-methoxy-2,4-dimethyl-1H-imidazo[4,5-c][1,8]naphthyridin-1-yl)methyl)pyridine-3-sulfonamide] | 0.41 µM | 78% | potently increased the IFN-β levels at very low concentrations |  |  |  |  |  |  |  |  |  | 
COc1ccc2c(ncc3nc(C)n(Cc4ccc(S(N)(=O)=O)cc4)c32)n1 [Compound 48, 4-((7-methoxy-2-methyl-1H-imidazo[4,5-c][1,8]naphthyridin-1-yl)methyl)benzenesulfonamide] | 0.55 µM | 80% | potently increased the IFN-β levels at very low concentrations | 0.67 µM | 95% |  |  |  |  |  |  |  | 
COc1cc2ncc3ncn(Cc4ccc(S(N)(=O)=O)cn4)c3c2cc1OC [Compound 12, 6-((7,8-dimethoxy-1H-imidazo[4,5-c]quinolin-1-yl)methyl)pyridine-3-sulfonamide] | 0.55 µM | 79% | potently increased the IFN-β levels at very low concentrations | 2.3 µM | 85% | 1 µM | 87% | 0.20 | 3.95 h | 5.9 µL/min/mg | 0.14 | 8.27 h | 2.8 µL/min/mg
